According to patent US10214553B2, “Solid state forms of sofosbuvir” (ratiopharm GmbH, priority 2014, dated 2019):
≈ marks a conversion by molar mass, not a printed value.

How the values were obtained:
Format in all cases: physicochemical
[1] = Compressibility, maximum density at constant pressure of 0.2 MPa (TA-XT2 Texture analyser); details: 0.2 MPa per step, 10 steps
Procedure: As used herein, and unless indicated otherwise, the term “compressibility” is expressed as maximum density at constant pressure of 0.2 MPa.
Compression profiles were obtained using a die and a flat-faced punch fitted on a TA-XT2 Texture analyser (Stable Micro Systems Ltd., Godalming, UK).
200 mg of micronized crystalline form E of Sofosbuvir obtained according to example 8 is compressed in a steel mould (with the rate of displacement 0.03 mm/s). Cyclic procedure (similar to tapping) was performed: compressing, then retracting, relaxation for 15 s and then repeated compressive steps (altogether 10 steps). Each step exerts 0.2 MPa pressure on to the sample. Sample density is calculated by dividing the weight by the sample volume for each cycle. Maximum density is reached within 10 steps. The maximal compressive displacement was 0.5 mm. The resulting density was: 0.48 g/ml

[2] = DVS water vapor sorption (hygroscopicity); details: for critical relative humidity in the sorption curve at which the rate of water uptake changes (inflection point): DVS sorption curve; for Change in Mass (%): 25° C.
Procedure: The improved hygroscopic properties discussed herein above may be expressed by the dynamic water uptake monitored by the DVS instrument. The profile of the dynamic curve obtained may provide insight on the tendency of the substance to deliquescence. […] This behavior indicates a long-term possibility of the stored powder to stick and form lumps.
DVS measurements were performed SMS DVS instrument
Humidity range: 0%-90%-0% cycle. […]
minimum step duration: 60 min maximum step duration: 720 min

[3] = Solubility at 37° C. by UHPLC/UV; details: for solubility at 15 min / solubility at 1 h: 37 °C, thermodynamic from solid
Procedure: (§1) Sofosbuvir form 6 prepared according to example 18 above and Sofosbuvir form 7 prepared according to example 16 above was used.
The solubility was determined as follows:
100 mg test substance was weighed into a glass vial, followed by addition of 4 mL solvent (water, 0.01 M HCl, 20 mM sodium acetate/acetic acid [pH 4.5], 50 mM KH2PO4 [pH 6.8]). A stirring bar was added, the vial was fixed in a block heater at 37° C. and the suspension was stirred with 250 rpm. After 15 min and 1 h, samples were withdrawn and filtered through a 0.2 μm PTFE filter. 100 μL of the clear filtrate were diluted with 900 μL acetonitrile/water mixture (1:1) and 1 μL thereof was analyzed by UHPLC/UV:
Instrument: Agilent 1290 Infinity
Column: Phenomenex Kinetex XB—C18, 1.7 μm, 50×3 mm
Solvent A: water+0.2% Formic acid+0.1% HFBA […] heptafluorobutyric acid)

[4] = Particle size distribution by laser diffractometry (Mastersizer 2000, wet measurement); details: silicone oil
Procedure: If a wet measurement is used the particles to be measured are dispersed in a dispersant, preferably a dispersant having a refractive index (RI) of 1.403, and the measurement is carried out at 2000 rpm and ultrasound for 120 s prior to measurement. Preferably, unless otherwise indicated the particle size distribution is determined using a wet measurement using a Mastersizer 2000 from Malvern Instruments and Malvern Hydro 2000S wet sample dispersion unit and silicone oil as dispersant. Unless otherwise indicated, the following settings are preferably used:
as §1
The particle size distribution was determined using a wet measurement using a Mastersizer 2000 from Malvern Instruments and Malvern Hydro 2000S wet sample dispersion unit and silicone oil as dispersant.

[5] = Propensity to become electrostatically charged
[6] = Dissolution, USP apparatus II, paddle method; details: pH 6.8, after 5 minutes
Procedure: Sofosbuvir form 6 prepared according to example 18 above and Sofosbuvir form 7 prepared according to example 16 above was used. The dissolution of Sofosbuvir Form 7 and Form 6 was measured (in triplicate) in 50 mM phosphate buffer at 37° C. (pH 6.8, 900 mL), using USP apparatus II, paddle method. Every 5 minutes, a probe was taken and measured by UV/VIS at 260 nm and path length 0.1 cm; UV/VIS was measured on an Agilent model 8453 with Chem Station Dissolution Software. 400 mg of Sofosbuvir Form 7 or Form 6 was used for the test, and the percentages are given in relation to 400 mg of the API. The results are represented graphically in FIG. 13.

[7] = Storage stability of the solid form

CC(C)OC(=O)[C@H](C)NP(=O)(OC[C@H]1O[C@@H](n2ccc(=O)[nH]c2=O)[C@](C)(F)[C@@H]1O)Oc1ccccc1 (stereo partly drawn) [(2S)-isopropyl 2-(((((2R,3R,4R,5R)-5-(2,4-dioxo-3,4-dihydropyrimidin-1(2H)-yl)-4-fluoro-3-hydroxy-4-methyltetrahydrofuran-2-yl)methoxy)(phenoxy)phosphoryl)amino)propanoate]
resulting density (compressibility) [1]: 0.48 g/mL

CC(C)OC(=O)[C@H](C)NP(=O)(OC[C@H]1O[C@@H](n2ccc(=O)[nH]c2=O)[C@](C)(F)[C@@H]1O)Oc1ccccc1 (stereo partly drawn) [Form 1, (2S)-isopropyl 2-(((((2R,3R,4R,5R)-5-(2,4-dioxo-3,4-dihydropyrimidin-1(2H)-yl)-4-fluoro-3-hydroxy-4-methyltetrahydrofuran-2-yl)methoxy)(phenoxy)phosphoryl)amino)propanoate]
critical relative humidity in the sorption curve at which the rate of water uptake changes (inflection point) [2]: about 80 % RH
water uptake ([2]; DVS, above 80% RH): about 5%
Change in Mass (%) ([2]; DVS, relative humidity 70%): 0.13%
Change in Mass (%) ([2]; DVS, relative humidity 90%): 5.57%

CC(C)OC(=O)[C@H](C)NP(=O)(OC[C@H]1O[C@@H](n2ccc(=O)[nH]c2=O)[C@](C)(F)[C@@H]1O)Oc1ccccc1 (stereo partly drawn) [Form 6, (2S)-isopropyl 2-(((((2R,3R,4R,5R)-5-(2,4-dioxo-3,4-dihydropyrimidin-1(2H)-yl)-4-fluoro-3-hydroxy-4-methyltetrahydrofuran-2-yl)methoxy)(phenoxy)phosphoryl)amino)propanoate]
Solubility ([3]; 0.01 M HCl, 15 min): 2500 µg/mL (≈ 4.72 mM)
Solubility ([3]; 0.01 M HCl, 1 h): 2400 µg/mL (≈ 4.53 mM)
Solubility ([3]; 20 mM NaOAc/HOAc (pH 4.5), 15 min): 2400 µg/mL (≈ 4.53 mM)
Solubility ([3]; 20 mM NaOAc/HOAc (pH 4.5), 1 h): 2500 µg/mL (≈ 4.72 mM)
Solubility ([3]; 50 mM KH2PO4 (pH 6.8), 15 min): 2300 µg/mL (≈ 4.34 mM)
Solubility ([3]; 50 mM KH2PO4 (pH 6.8), 1 h): 2300 µg/mL (≈ 4.34 mM)
Solubility ([3]; water, 15 min): 2400 µg/mL (≈ 4.53 mM)
Solubility ([3]; water, 1 h): 2300 µg/mL (≈ 4.34 mM)
Particle size D10 [4]: 2.0 μm
Particle size D50 [4]: 8.2 μm
Particle size D90 [4]: 22.9 μm
propensity to become electrostatically charged [5]: high propensity to become electrostatically charged
critical relative humidity in the sorption curve at which the rate of water uptake changes (inflection point) [2]: about 70 % RH
water uptake ([2]; DVS, above 70% RH): about 1%
Change in Mass (%) ([2]; DVS, relative humidity 70%): 0.14%
Change in Mass (%) ([2]; DVS, relative humidity 90%): 1.08%

CC(C)OC(=O)[C@H](C)NP(=O)(OC[C@H]1O[C@@H](n2ccc(=O)[nH]c2=O)[C@](C)(F)[C@@H]1O)Oc1ccccc1 (stereo partly drawn) [Form 7, (2S)-isopropyl 2-(((((2R,3R,4R,5R)-5-(2,4-dioxo-3,4-dihydropyrimidin-1(2H)-yl)-4-fluoro-3-hydroxy-4-methyltetrahydrofuran-2-yl)methoxy)(phenoxy)phosphoryl)amino)propanoate]
solubility (percent dissolved) [6]: ≥ 65%
solubility at 15 min ([3]; 0.01 M HCl, pH 2, simulated gastric fluid, 15 min): 3200 µg/mL (≈ 6.04 mM)
solubility at 1 h ([3]; 0.01 M HCl, pH 2, simulated gastric fluid, 1 h): 3200 µg/mL (≈ 6.04 mM)
solubility at 15 min ([3]; 20 mM sodium acetate/acetic acid buffer, pH 4.5, aqueous buffer, 20 mM NaOAc/HOAc (pH 4.5), 15 min): 3100 µg/mL (≈ 5.86 mM)
solubility at 1 h ([3]; 20 mM sodium acetate/acetic acid buffer, pH 4.5, aqueous buffer, 20 mM NaOAc/HOAc (pH 4.5), 1 h): 3100 µg/mL (≈ 5.86 mM)
solubility at 15 min ([3]; 50 mM KH2PO4 buffer, pH 6.8, aqueous buffer, 50 mM KH2PO4 (pH 6.8), 15 min): 3200 µg/mL (≈ 6.04 mM)
solubility at 1 h ([3]; 50 mM KH2PO4 buffer, pH 6.8, aqueous buffer, 50 mM KH2PO4 (pH 6.8), 1 h): 3000 µg/mL (≈ 5.67 mM)
solubility compared with the solubility of Form 6 ([3]; physiologically relevant solvents, after 15 min and after 1 hour): approximately one third higher
solubility at 15 min ([3]; water, 15 min): 3100 µg/mL (≈ 5.86 mM)
solubility at 1 h ([3]; water, 1 h): 3100 µg/mL (≈ 5.86 mM)

CC(C)OC(=O)[C@H](C)NP(=O)(OC[C@H]1O[C@@H](n2ccc(=O)[nH]c2=O)[C@](C)(F)[C@@H]1O)Oc1ccccc1 (stereo partly drawn) [Form E, (2S)-isopropyl 2-(((((2R,3R,4R,5R)-5-(2,4-dioxo-3,4-dihydropyrimidin-1(2H)-yl)-4-fluoro-3-hydroxy-4-methyltetrahydrofuran-2-yl)methoxy)(phenoxy)phosphoryl)amino)propanoate]
stable for ([7]; at 25 degrees): at least 3 months
stable for ([7]; at 40 degrees): at least 3 months
hysteresis between the desorption and the absorption isotherm ([2]; DVS): doesn't exhibit any hysteresis
critical relative humidity in the sorption curve at which the rate of water uptake changes (inflection point) [2]: does not show this inflection point
Change in Mass (%) ([2]; DVS, relative humidity 70%): 0.07%
Change in Mass (%) ([2]; DVS, relative humidity 90%): 0.12%
